Data published in ChEMBL document CHEMBL5390205, “Acidonemycins A-C, Glycosylated Angucyclines with Antivirulence Activity Produced by the Acidic Culture of Streptomyces indonesiensis” (J Nat Prod, 2023).
The source made the active and inactive calls. The rule behind the calls is not given here.

Legend:
Assay type in all cases: functional, organism-based
Conditions in all cases: dose 0-100 µg/ml
Staphylococcus aureus [1] = assay: Antivirulence activity against methicillin-resistant Staphylococcus aureus USA300 LAC assessed as inhibition of phenol-soluble modulin alpha1-4 production incubated for 22 hrs by LC-MS analysis
Staphylococcus aureus [2] = assay: Antivirulence activity against methicillin-resistant Staphylococcus aureus USA300 LAC assessed as inhibition of delta toxin production incubated for 22 hrs by LC-MS analysis
Staphylococcus aureus [3] = assay: Antivirulence activity against methicillin-resistant Staphylococcus aureus USA300 LAC assessed as inhibition of biofilm formation incubated for 22 hrs by crystal violet staining based assay

SMILES	Activity (Staphylococcus aureus [1])	Activity (Staphylococcus aureus [2])	Activity (Staphylococcus aureus [3])
COC(=O)[C@H]1O[C@@H](Oc2cccc3c2C(=O)O[C@H]3c2c(O)ccc3c2C(=O)C[C@@H](C)C3)[C@H](O)[C@@H](O)[C@@H]1O	inactive	inactive	inactive
C[C@@H]1CC(=O)c2c(ccc3c2C(=O)c2cccc(O[C@@H]4O[C@H](C(=O)O)[C@@H](O)[C@H](O)[C@H]4O)c2C3=O)C1	Dose-Dependent Effect	Dose-Dependent Effect	Dose-Dependent Effect
COC(=O)[C@H]1O[C@@H](Oc2cccc3c2C(=O)c2ccc4c(c2C3=O)C(=O)C[C@@H](C)C4)[C@H](O)[C@@H](O)[C@@H]1O	Dose-Dependent Effect	Dose-Dependent Effect	Dose-Dependent Effect
